Measurements taken from patent US9492468B2, “Methods and compositions for treatment of acute heart failure” (PERICOR THERAPEUTICS, INC., priority 2008, dated 2016).
Where a name gives a salt, the structure may show the parent alone.

Test system: dogs with advanced heart failure
Test: Single-dose 6 hours infusion study, hemodynamic, ventriculographic, echocardiographic, MVO2 and P-V loop measures
Format: in vivo, dog
Method: Studies were performed in purpose-bred, healthy and conditioned mongrel dogs weighing between 20 and 30 kg. The study was approved by Henry Ford Health System Institutional Animal Care and Use Committee and conformed to the National Institute of Health “Guide and Care for Use of Laboratory Animals” and the “Position of the American Heart Association on Research Animal Use” (Position of the American Heart Association on Research Animal Use. Circulation 1985; 71; 49A-50A).
Chronic LV dysfunction and failure was produced by multiple sequential intracoronary embolizations with polystyrene Latex; coronary microembolizations were performed during cardiac catheterization under general anesthesia and sterile conditions (Sabbah H N, et al. Am J Physiol (1991) 260:H1379-84; Sabbah H N, et al. Circulation (1994) 89:2852-9; Sabbah H N, et al. Am J Cardiol 99:41 A-46A, (2007)). Anesthesia was induced using a combination of intravenous injections of oxymorphone hydrochloride (0.22 mg/kg) and diazepam (0.2-0.6 mg/kg). Plane of anesthesia was maintained throughout the study using 1% to 2% isoflurane. Left and right heart catheterizations were performed via a femoral arteriotomy and venotomy. Coronary microembolizations were discontinued when LV ejection fraction, determined angiographically, was about 25%. A period of 2 weeks was allowed after the last microembolization to ensure that infarctions produced by the last microembolizations have completely healed and heart failure was established before the study is undertaken.
Six heart failure dogs described in Example 1 were used. Studies using active drug and placebo were performed in each dog in random order a minimum of one week apart. After baseline hemodynamic, angiographic and echocardiographic measurements, GP-531 tartrate or placebo was administered as a continuous constant intravenous infusion for 6 hours. The dose of GP-531 tartrate was 10 μg/kg/min. Complete hemodynamic, angiographic and echocardiographic measurements were made during baseline, and at 1, 2, 3, 4, 5 and 6 hours after initiating drug infusion. In addition, myocardial oxygen consumption (MVO2) was measured at baseline and 4 and 6 hours after initiating drug or saline infusion. LV pressure-volume relationships (P-V Loops) were also measured at baseline and at 6 hours after initiating drug or saline infusion to assess load independent contractility and relaxation. Venous blood samples were obtained at baseline and hourly thereafter. Blood samples (at least […]) were centrifuged at 3000 rpm for 10 minutes and plasma withdrawn and placed in cryostorage tubes and stored upright at −20° C. until needed. Venous blood samples were used to evaluate plasma levels of troponin-I and plasma levels of n-terminal pro-brain natriuretic peptide (NT-proBNP).
Study Primary End-Points were: (1) change in LV ejection fraction determined from ventriculography; (2) change in LV end-systolic and end-diastolic volume determined from ventriculography; (3) change in MVO2; and (4) change in the slope of the LV end-systolic and end-diastolic P-V relationship.
All hemodynamic measurements were made during left and right heart catheterizations in anesthetized dogs at each specified study time point. Heart rate (HR), mean aortic pressure (mAoP), LV end-diastolic pressure (LVEDP), stroke volume (SV), cardiac output (CO) and systemic vascular resistance (SVR) were measured at each study time point. Left ventriculograms were performed during cardiac catheterization after completion of the hemodynamic measurements. Left ventriculograms were obtained with the dog placed on its right side and digitally recorded during the injection of 20 ml of contrast material (RENO-M-60 Squibb, Princeton, N.J.). Correction for image magnification was made using a radiopaque grid placed at the level of the LV. […]

[1] = HF dogs n=6, iv 10 μg/kg/min for 6 h
[2] = HF dogs n=6, iv 10 μg/kg/min for 6 h, vs baseline
[3] = HF dogs n=6, iv 10 μg/kg/min constant infusion, 1 h
[4] = HF dogs n=6, iv 10 μg/kg/min constant infusion, 2 h
[5] = HF dogs n=6, iv 10 μg/kg/min constant infusion, 3 h
[6] = HF dogs n=6, iv 10 μg/kg/min constant infusion, 4 h
[7] = HF dogs n=6, iv 10 μg/kg/min constant infusion, 5 h
[8] = HF dogs n=6, iv 10 μg/kg/min constant infusion, 6 h
[9] = HF dogs n=6, iv 10 μg/kg/min for 6 h, time-dependent

NC(=O)c1ncn(C2OC(CNCc3ccccc3)C(O)C2O)c1N [GP-531, 5-amino-1-β-D-(5-benzylamino-5-deoxy-1-β-D-ribofuranosyl)imidazole-4 carboxamide]
Time after initiating drug infusion at which improvements (EDV, ESV, EF, FAS) occurred (HF dogs n=6, iv 10 μg/kg/min): 1 to 3 h
Acute decompensation [1]: None of the dogs treated with GP-531 developed acute decompensation
Changes in MVO2 [1]: absence of any changes
Death [1]: none died
Effect on peak +dP/dt [1]: no significant effects
Effect on peak −dP/dt [1]: no significant effects
Effect on LVEDP (HF dogs n=6, iv 10 μg/kg/min for 6 h, time-dependent, significance at 5 hours): significantly decreased
Effect on CO [2]: significant increase
Effect on EDV [2]: modest but statistically significant effect on reducing
Effect on EF (LVEF) [2]: increased
Effect on ESV [2]: significantly decreased
Effect on FAS [2]: increased
Effect on SV [2]: significant increase
Effect on SVR [2]: decrease
Effect on slope of the ESPVR (HF dogs n=6, iv 10 μg/kg/min, 6 h vs baseline): significantly increased

NC(=O)c1ncn(C2OC(CNCc3ccccc3)C(O)C2O)c1N (centres unmarked) [GP-531 tartrate]
Cardiac output (CO) [3]: 1.42 ± 0.08 L/min
Deceleration time of early mitral inflow velocity (DCT) [3]: 100 ± 5 ms
Ei/Ai (ratio of mitral inflow time-velocity integrals) [3]: 1.78 ± 0.23
Heart rate (HR) [3]: 78 ± 1 beats/min
LV end-diastolic circumferential wall stress (EDWS) [3]: 53 ± 7 gm/cm^2
LV end-diastolic pressure (LVEDP) [3]: 12 ± 1.1 mmHg
LV end-diastolic volume (EDV) [3]: 64 ± 2 mL
LV end-systolic volume (ESV) [3]: 46 ± 2 mL
LV fractional area of shortening (FAS) [3]: 26 ± 0.8%
Mean aortic pressure (mAoP) [3]: 77 ± 3 mmHg
PE/PA (ratio of peak mitral flow velocities) [3]: 1.7 ± 0.10
Stroke volume (SV) [3]: 18 ± 1.0 mL
Systemic vascular resistance (SVR) [3]: 4368 ± 248 dynes-sec-cm^−5
Cardiac output (CO) [4]: 1.47 ± 0.11 L/min
Deceleration time of early mitral inflow velocity (DCT) [4]: 109 ± 4 ms
Ei/Ai (ratio of mitral inflow time-velocity integrals) [4]: 2.03 ± 0.23
Heart rate (HR) [4]: 78 ± 2 beats/min
LV end-diastolic circumferential wall stress (EDWS) [4]: 47 ± 5 gm/cm^2
LV end-diastolic pressure (LVEDP) [4]: 12 ± 0.9 mmHg
LV end-diastolic volume (EDV) [4]: 63 ± 2 mL
LV end-systolic volume (ESV) [4]: 44 ± 2 mL
LV fractional area of shortening (FAS) [4]: 27 ± 1.3 %
Mean aortic pressure (mAoP) [4]: 77 ± 3 mmHg
PE/PA (ratio of peak mitral flow velocities) [4]: 1.8 ± 0.10
Stroke volume (SV) [4]: 19 ± 1.2 mL
Systemic vascular resistance (SVR) [4]: 4250 ± 327 dynes-sec-cm^−5
Cardiac output (CO) [5]: 1.53 ± 0.08 L/min
Deceleration time of early mitral inflow velocity (DCT) [5]: 113 ± 6 ms
Ei/Ai (ratio of mitral inflow time-velocity integrals) [5]: 2.40 ± 0.29
Heart rate (HR) [5]: 79 ± 3 beats/min
LV end-diastolic circumferential wall stress (EDWS) [5]: 47 ± 6 gm/cm^2
LV end-diastolic pressure (LVEDP) [5]: 12 ± 1.1 mmHg
LV end-diastolic volume (EDV) [5]: 63 ± 2 mL
LV end-systolic volume (ESV) [5]: 44 ± 2 mL
LV fractional area of shortening (FAS) [5]: 29 ± 0.9 %
Mean aortic pressure (mAoP) [5]: 79 ± 3 mmHg
PE/PA (ratio of peak mitral flow velocities) [5]: 1.9 ± 0.07
Stroke volume (SV) [5]: 19 ± 0.8 mL
Systemic vascular resistance (SVR) [5]: 4157 ± 212 dynes-sec-cm^−5
Cardiac output (CO) [6]: 1.63 ± 0.05 L/min
Deceleration time of early mitral inflow velocity (DCT) [6]: 113 ± 5 ms
Ei/Ai (ratio of mitral inflow time-velocity integrals) [6]: 2.51 ± 0.21
Heart rate (HR) [6]: 80 ± 3 beats/min
LV end-diastolic circumferential wall stress (EDWS) [6]: 44 ± 7 gm/cm^2
LV end-diastolic pressure (LVEDP) [6]: 11 ± 1.2 mmHg
LV end-diastolic volume (EDV) [6]: 63 ± 2 mL
LV end-systolic volume (ESV) [6]: 42 ± 2 mL
LV fractional area of shortening (FAS) [6]: 31 ± 1.5 %
Mean aortic pressure (mAoP) [6]: 79 ± 3 mmHg
Myocardial oxygen consumption (MVO2) [6]: 114 ± 14 μmols/min
PE/PA (ratio of peak mitral flow velocities) [6]: 2.1 ± 0.09
Stroke volume (SV) [6]: 21 ± 0.9 mL
Systemic vascular resistance (SVR) [6]: 3895 ± 168 dynes-sec-cm^−5
Cardiac output (CO) [7]: 1.64 ± 0.07 L/min
Deceleration time of early mitral inflow velocity (DCT) [7]: 118 ± 6 ms
Ei/Ai (ratio of mitral inflow time-velocity integrals) [7]: 2.68 ± 0.23
Heart rate (HR) [7]: 79 ± 4 beats/min
LV end-diastolic circumferential wall stress (EDWS) [7]: 43 ± 7 gm/cm^2
LV end-diastolic pressure (LVEDP) [7]: 11 ± 1.2 mmHg
LV end-diastolic volume (EDV) [7]: 62 ± 2 mL
LV end-systolic volume (ESV) [7]: 41 ± 2 mL
LV fractional area of shortening (FAS) [7]: 31 ± 1.4 %
Mean aortic pressure (mAoP) [7]: 77 ± 2 mmHg
PE/PA (ratio of peak mitral flow velocities) [7]: 2.2 ± 0.05
Stroke volume (SV) [7]: 21 ± 1.1 mL
Systemic vascular resistance (SVR) [7]: 3823 ± 221 dynes-sec-cm^−5
Cardiac output (CO) [8]: 1.69 ± 0.04 L/min
Deceleration time of early mitral inflow velocity (DCT) [8]: 118 ± 4 ms
Ei/Ai (ratio of mitral inflow time-velocity integrals) [8]: 2.77 ± 0.23
Heart rate (HR) [8]: 81 ± 4 beats/min
LV end-diastolic circumferential wall stress (EDWS) [8]: 41 ± 7 gm/cm^2
LV end-diastolic pressure (LVEDP) [8]: 10 ± 1.2 mmHg
LV end-diastolic volume (EDV) [8]: 62 ± 2 mL
LV end-systolic volume (ESV) [8]: 41 ± 2 mL
LV fractional area of shortening (FAS) [8]: 32 ± 1.1 %
Mean aortic pressure (mAoP) [8]: 76 ± 3 mmHg
Myocardial oxygen consumption (MVO2) [8]: 115 ± 12 μmols/min
PE/PA (ratio of peak mitral flow velocities) [8]: 2.2 ± 0.06
Slope of end-diastolic pressure-volume relation (EDPVR) [8]: 0.296 ± 0.018 mmHg/ml
Slope of end-systolic pressure volume relation (ESPVR) [8]: 2.43 ± 0.35 mmHg/ml
Stroke volume (SV) [8]: 21 ± 0.8 mL
Systemic vascular resistance (SVR) [8]: 3571 ± 113 dynes-sec-cm^−5
Ventricular or atrial arrhythmias [1]: did not evoke any ventricular or atrial arrhythmias
Effect on DCT [9]: increased
Effect on EDWS [9]: decreased significantly
Effect on Ei/Ai [9]: increased significantly
Effect on PE/PA [9]: increased significantly
Effect on HR [2]: no effect
Effect on mAoP [2]: no effect
Effect on EF (LVEF) (HF dogs n=6, iv 10 μg/kg/min for 6 h, vs baseline, listed as GP-531 tartrate salt): increase
Effect on slope of the EDPVR (HF dogs n=6, iv 10 μg/kg/min, 6 hours, not statistically significant): tended to decrease
LV systolic and diastolic function (HF dogs, iv 10 μg/kg/min for 6 hours): can improve both LV systolic and diastolic function
